Experiment [1] addresses NMDA receptor. Set-up: species or system rat. To be noted: read-out: EC50 of Gly, [3H]MK-801 binding.
The test system of experiment [2] is NMDA receptor. The experiment is classed as binding, rat.
Experiment [3] addresses T1, NMDA receptor (Rattus norvegicus, UniProt P35439+Q00960).
T1 construct: other: test compound in the absence of spermine; concentration at 50% of maximum stimulation; % Sti; spermine = 100; other: with and without spermine; absence of spermine; % STI; absence
The experiment in a line: biochemical. The experiment is classed as binding.

Values joined by “and” are separate entries in the source; they are usually repeats but may differ in a detail not shown here. Equal entries are not always repeated. Where two headings read alike, the source gives them in different places. Ends that are not written are not given here. Peptide text beside a SMILES is read from it.

T1 sequence (Q00960 27-1482, other chains not shown): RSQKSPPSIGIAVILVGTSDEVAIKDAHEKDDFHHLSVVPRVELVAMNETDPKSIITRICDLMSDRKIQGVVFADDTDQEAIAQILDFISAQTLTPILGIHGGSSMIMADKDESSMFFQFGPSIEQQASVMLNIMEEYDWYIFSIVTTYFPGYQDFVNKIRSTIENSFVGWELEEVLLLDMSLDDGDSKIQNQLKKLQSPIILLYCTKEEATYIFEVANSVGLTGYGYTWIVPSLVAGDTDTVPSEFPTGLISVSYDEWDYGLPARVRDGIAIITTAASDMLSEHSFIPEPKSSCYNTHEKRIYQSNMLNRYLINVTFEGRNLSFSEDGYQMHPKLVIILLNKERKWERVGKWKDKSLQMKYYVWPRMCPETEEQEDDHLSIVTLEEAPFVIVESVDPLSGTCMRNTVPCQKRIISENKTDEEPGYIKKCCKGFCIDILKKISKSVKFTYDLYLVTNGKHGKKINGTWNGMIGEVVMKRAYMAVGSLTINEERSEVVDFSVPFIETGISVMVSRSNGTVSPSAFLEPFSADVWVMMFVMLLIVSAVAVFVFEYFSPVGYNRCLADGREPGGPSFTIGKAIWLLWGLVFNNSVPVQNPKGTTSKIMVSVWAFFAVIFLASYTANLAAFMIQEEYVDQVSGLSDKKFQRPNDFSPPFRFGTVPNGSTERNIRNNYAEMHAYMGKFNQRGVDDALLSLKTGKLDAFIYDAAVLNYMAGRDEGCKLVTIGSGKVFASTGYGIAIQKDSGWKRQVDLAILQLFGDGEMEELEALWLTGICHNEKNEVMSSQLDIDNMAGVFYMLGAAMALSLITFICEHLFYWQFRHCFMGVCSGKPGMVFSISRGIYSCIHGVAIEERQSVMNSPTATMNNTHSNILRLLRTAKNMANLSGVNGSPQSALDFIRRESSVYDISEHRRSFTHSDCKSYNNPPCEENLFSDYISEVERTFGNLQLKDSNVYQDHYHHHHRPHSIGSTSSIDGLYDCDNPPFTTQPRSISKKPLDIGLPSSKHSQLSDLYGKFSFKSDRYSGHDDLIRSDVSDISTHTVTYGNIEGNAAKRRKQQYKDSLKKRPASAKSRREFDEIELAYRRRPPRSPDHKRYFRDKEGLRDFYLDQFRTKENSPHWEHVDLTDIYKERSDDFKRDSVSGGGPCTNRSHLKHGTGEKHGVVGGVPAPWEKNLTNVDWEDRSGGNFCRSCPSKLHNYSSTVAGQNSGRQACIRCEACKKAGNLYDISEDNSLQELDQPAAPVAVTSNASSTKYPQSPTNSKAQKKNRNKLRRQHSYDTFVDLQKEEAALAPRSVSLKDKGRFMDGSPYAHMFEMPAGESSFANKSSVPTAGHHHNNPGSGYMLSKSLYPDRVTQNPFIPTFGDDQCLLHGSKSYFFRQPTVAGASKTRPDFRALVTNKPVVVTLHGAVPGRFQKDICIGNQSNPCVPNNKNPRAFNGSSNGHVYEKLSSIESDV

In general, EC50 refers to the concentration at which the effect is half-maximal. Consider `NCC(=O)O` [Gly, glycine], for which, at NMDA receptor [1], the EC50 is 0.056 µM and 0.058 µM.

On to `CC[C@H](C)[C@H](NC(=O)[C@H](CCC(N)=O)NC(=O)[C@H](CO)NC(=O)[C@@H](NC(=O)[C@H](CC(N)=O)NC(=O)[C@H](CO)NC(=O)[C@H](CCC(N)=O)NC(=O)[C@H](CC(C)C)NC(=O)[C@H](CC(C(=O)O)C(=O)O)NC(=O)[C@H](CC(C(=O)O)C(=O)O)NC(=O)[C@H](CCC(=O)O)NC(=O)CN)C(C)C)C(=O)N[C@@H](CCCNC(=N)N)C(=O)N[C@@H](C)C(=O)N[C@@H](CCCCN)C(=O)N[C@@H](CO)C(=O)N[C@@H](CC(N)=O)C(N)=O` [310 helix ConG] (HELM PEPTIDE1{G.E.[O=C(O)C(C[C@H](N[*:1])C(=O)[*:2])C(=O)O].[O=C(O)C(C[C@H](N[*:1])C(=O)[*:2])C(=O)O].L.Q.S.N.V.S.Q.I.R.A.K.S.N.[am]}$$$$V2.0), for which the “% Inh” value in the experiment on NMDA receptor [2] was 25%. Besides, the IC50 on NMDA receptor [2] (read-out: Spermine IC) is 20 µM. The Emax at NMDA receptor [3] (read-out: % Sti) was found to be 0%.

For QELIREKSN [Glul0,14-Con-G(9-17)], the “% Inh” value in the experiment with NMDA receptor [2] is on record as 0%. Also, the “% Sti” value on NMDA receptor [3] is reported as 0%.

Consider `CC[C@H](C)[C@H](NC(=O)[C@H](CC(C)C)NC(=O)[C@H](CC(C(=O)O)C(=O)O)NC(=O)[C@H](CCC(N)=O)NC(=O)[C@H](CC(N)=O)NC(=O)[C@H](Cc1cc(I)c(O)c(I)c1)NC(=O)[C@H](CCC(N)=O)NC(=O)[C@H](CC(C)C)NC(=O)[C@H](CC(C(=O)O)C(=O)O)NC(=O)[C@H](CC(C(=O)O)C(=O)O)NC(=O)[C@H](CCC(=O)O)NC(=O)CN)C(=O)N[C@@H](CCCNC(=N)N)C(=O)N[C@@H](CC(C(=O)O)C(=O)O)C(=O)N[C@@H](CCCCN)C(=O)N[C@@H](CO)C(=O)N[C@@H](CC(N)=O)C(N)=O` [di-iodo-Tyr7-Con-G, GEggLQY(JI)NQgLIRgKSN], for which the “% Inh” value in the experiment with NMDA receptor [2] is listed as 100%. Also, the IC50 at NMDA receptor [2] (read-out: Spermine IC) stood at 0.5 µM. At NMDA receptor [3] (read-out: % Sti), the Emax was determined as 0%.

For the molecule `CC[C@H](C)[C@H](NC(=O)[C@H](CC(C)C)NC(=O)[C@H](C)NC(=O)[C@H](CC(C)C)NC(=O)[C@H](C)NC(=O)[C@H](C)NC(=O)[C@H](CCC(N)=O)NC(=O)[C@H](CC(C)C)NC(=O)[C@H](CC(C(=O)O)C(=O)O)NC(=O)[C@H](CC(C(=O)O)C(=O)O)NC(=O)[C@H](CCC(=O)O)NC(=O)CN)C(=O)N[C@@H](CCCNC(=N)N)C(=O)N[C@@H](C)C(=O)N[C@@H](CCCCN)C(=O)N[C@@H](CO)C(=O)N[C@@H](CC(N)=O)C(N)=O` [alpha helix ConG, GEggLQAALALJRAKSN] (HELM PEPTIDE1{G.E.[O=C(O)C(C[C@H](N[*:1])C(=O)[*:2])C(=O)O].[O=C(O)C(C[C@H](N[*:1])C(=O)[*:2])C(=O)O].L.Q.A.A.L.A.L.I.R.A.K.S.N.[am]}$$$$V2.0), the “% Inh” value in the experiment with NMDA receptor [2] stood at 100%. The IC50 at NMDA receptor [2] (read-out: Spermine IC) was found to be 1.5 µM. Besides, the Emax on NMDA receptor [3] (read-out: % Sti) is 0%.

For the molecule `NCCCNCCCCNCCCN` [Spermine, reference compound], in the experiment on NMDA receptor [2], the “% Inh” value is recorded as 0%. Also, on NMDA receptor [3] (forebrain membranes), the “% Sti” value is reported as 100%.

For “Y(p)-GEggLQgNQgLIRgKSN (YGEXXLQXNQXLIRXKSN; phosphotyrosine) [Tyr(p)^o-Con-G]”, the “% Inh” value in the experiment with NMDA receptor [2] is given as 0%. Further, the “% Sti” value in the experiment with NMDA receptor [3] is reported as 0%.

In the case of `CC[C@H](C)[C@H](NC(=O)[C@H](CC(C)C)NC(=O)[C@H](COP(=O)(O)O)NC(=O)[C@H](CCC(N)=O)NC(=O)[C@H](CC(N)=O)NC(=O)[C@H](CC(C(=O)O)C(=O)O)NC(=O)[C@H](CCC(N)=O)NC(=O)[C@H](CC(C)C)NC(=O)[C@H](CC(C(=O)O)C(=O)O)NC(=O)[C@H](CC(C(=O)O)C(=O)O)NC(=O)[C@H](CCC(=O)O)NC(=O)CN)C(=O)N[C@@H](CCCNC(=N)N)C(=O)N[C@@H](CC(C(=O)O)C(=O)O)C(=O)N[C@@H](CCCCN)C(=O)N[C@@H](CO)C(=O)N[C@@H](CC(N)=O)C(N)=O` [Ser(p)10-Con-G, GEggLQgNQS(p)LIRgKSN], the “% Inh” value in the experiment with NMDA receptor [2] stood at 100%. Further, on NMDA receptor [2] (read-out: IC50, inhibition of spermine-enhanced [3H]MK-801 binding), the IC50 stood at 0.56 ± 0.2 µM. Further, at NMDA receptor [3] (forebrain membranes), the “% Sti” value is on record as 0%.

Consider “EEELQENQELIREKSN-NH2 [Glu3,4,7,10-Con-G(2-17)]”, for which the “% INH” value in the experiment on NMDA receptor [2] amounted to 70%. In addition, the “% Inh” value in the experiment with NMDA receptor [2] stood at 70%. In addition, the IC50 on NMDA receptor [2] (read-out: IC50) and on NMDA receptor [2] (read-out: Spermine IC) was 5.4 µM in each case. The Emax on NMDA receptor [3] (read-out: % STI) and on NMDA receptor [3] (read-out: % Sti) was 33% in each case.

As to “GEgELQgNQgLJRgKSN (GEXELQXNQXLIRXKSN; gamma-carboxyglutamate residues) [Glu4-Con-G]”, the “% Inh” value with NMDA receptor [2] is 0%. In the experiment with NMDA receptor [3], the “% Sti” value turned out to be 0%.

With `CC[C@H](C)[C@H](NC(=O)[C@H](CC(C)C)NC(=O)[C@H](CCC(=O)O)NC(=O)[C@H](CCC(N)=O)NC(=O)[C@H](CC(N)=O)NC(=O)[C@H](CCC(=O)O)NC(=O)[C@H](CCC(N)=O)NC(=O)[C@H](CC(C)C)NC(=O)[C@H](CCC(=O)O)NC(=O)[C@H](CCC(=O)O)NC(=O)[C@H](CCC(=O)O)NC(=O)CNC(=O)[C@@H](N)Cc1ccc(O)cc1)C(=O)N[C@@H](CCCNC(=N)N)C(=O)N[C@@H](CCC(=O)O)C(=O)N[C@@H](CCCCN)C(=O)N[C@@H](CO)C(=O)N[C@@H](CC(N)=O)C(N)=O` [Tyr^o-Glu3,4,7,10,14-Con-G], in the experiment on NMDA receptor [2], the “% Inh” value was determined as 0% and the “inhibition of spermine-induced [3H]MK-801 binding” value is recorded as “no inhibition”. For the same molecule, the “stimulation of [3H]MK-801 binding in the absence of spermine” value on NMDA receptor [3] was “stimulated”. The Emax at NMDA receptor [3] (read-out: % Sti) was found to be 31%.

Take `CC[C@H](C)[C@H](NC(=O)[C@H](CC(C)C)NC(=O)[C@H](CC(C(=O)O)C(=O)O)NC(=O)[C@H](CCC(N)=O)NC(=O)[C@H](CC(N)=O)NC(=O)[C@H](CC(C(=O)O)C(=O)O)NC(=O)[C@H](CCC(N)=O)NC(=O)[C@H](CC(C)C)NC(=O)[C@H](CC(C(=O)O)C(=O)O)NC(=O)[C@H](CC(C(=O)O)C(=O)O)NC(=O)[C@H](CCC(=O)O)NC(=O)CNC(=O)[C@@H](N)CC(=O)N[C@@H]1O[C@H](CO)[C@@H](O)[C@H](O)[C@H]1NC(C)=O)C(=O)N[C@@H](CCCNC(=N)N)C(=O)N[C@@H](CC(C(=O)O)C(=O)O)C(=O)N[C@@H](CCCCN)C(=O)N[C@@H](CO)C(=O)N[C@@H](CC(N)=O)C(N)=O` [Asn(GlcNAc)^o-Con-G, N(GlcOc)-GEggLQgNQgLIRgKSN]: in the experiment on NMDA receptor [2], the “% Inh” value is recorded as 38%. For the same molecule, the IC50 at NMDA receptor [2] (read-out: Spermine IC) was 8.8 µM. The “% Sti” value on NMDA receptor [3] (forebrain membranes) is given as 0%.

For the molecule GEgSLQgNQgLJRgKSN [Ser4-Con-G], in the experiment on NMDA receptor [2], the “% Inh” value is listed as 0%. In addition, the “% Sti” value with NMDA receptor [3] is 0%.

Take `CC[C@H](C)[C@H](NC(=O)[C@H](CC(C)C)NC(=O)[C@H](CCC(=O)O)NC(=O)[C@H](CCC(N)=O)NC(=O)[C@H](CC(N)=O)NC(=O)[C@H](CCC(=O)O)NC(=O)[C@H](CCC(N)=O)NC(=O)[C@H](CC(C)C)NC(=O)[C@H](CCC(=O)O)NC(=O)[C@H](CCC(=O)O)NC(=O)[C@H](CCC(=O)O)NC(=O)CN)C(=O)N[C@@H](CCCNC(=N)N)C(=O)N[C@@H](CCC(=O)O)C(=O)N[C@@H](CCCCN)C(=O)N[C@@H](CO)C(=O)N[C@@H](CC(N)=O)C(N)=O` [Glu3,4,7,10,14-Con-G]: the “% INH” value with NMDA receptor [2] was 22%. In addition, the “% Inh” value with NMDA receptor [2] is given as 22%. The IC50 on NMDA receptor [2] (read-out: IC50) and at NMDA receptor [2] (read-out: Spermine IC) was 8.5 µM each time. Further, the Emax at NMDA receptor [3] (read-out: % STI) and on NMDA receptor [3] (read-out: % Sti) was 79% in each case.

For `CC[C@H](C)[C@H](NC(=O)[C@H](CC(C)C)NC(=O)[C@H](CC(C(=O)O)C(=O)O)NC(=O)[C@H](CCC(N)=O)NC(=O)[C@H](CC(N)=O)NC(=O)[C@H](CC(C(=O)O)C(=O)O)NC(=O)[C@H](CCC(N)=O)NC(=O)[C@H](CC(C)C)NC(=O)[C@H](CC(C(=O)O)C(=O)O)NC(=O)[C@H](COP(=O)(O)O)NC(=O)[C@H](CCC(=O)O)NC(=O)CN)C(=O)N[C@@H](CCCNC(=N)N)C(=O)N[C@@H](CC(C(=O)O)C(=O)O)C(=O)N[C@@H](CCCCN)C(=O)N[C@@H](CO)C(=O)N[C@@H](CC(N)=O)C(N)=O` [Ser(p)3-Con-G, GES(p)gLQgNQgLJRgKSN], in the experiment with NMDA receptor [2], the “% INH” value is given as 34 ± 2.3% and the “% Inh” value is on record as 34 ± 2.3%. In addition, at NMDA receptor [3] (forebrain membranes), the “% STI” value is on record as 68 ± 8.4% and the “% Sti” value was 68 ± 8.4%.

Turning to `CC[C@H](C)[C@H](NC(=O)[C@H](CC(C)C)NC(=O)[C@H](C)NC(=O)[C@H](CCC(N)=O)NC(=O)[C@H](CC(N)=O)NC(=O)[C@H](CC(C(=O)O)C(=O)O)NC(=O)[C@H](CCC(N)=O)NC(=O)[C@H](CC(C)C)NC(=O)[C@H](CC(C(=O)O)C(=O)O)NC(=O)[C@H](CC(C(=O)O)C(=O)O)NC(=O)[C@H](CCC(=O)O)NC(=O)CN)C(=O)N[C@@H](CCCNC(=N)N)C(=O)N[C@@H](CC(C(=O)O)C(=O)O)C(=O)N[C@@H](CCCCN)C(=O)N[C@@H](CO)C(=O)N[C@@H](CC(N)=O)C(N)=O` [Ala10-Con-G, GEggLQgNQALIRgKSN], in the experiment on NMDA receptor [2], the “% Inh” value is reported as 100%. Besides, the IC50 at NMDA receptor [2] (read-out: Spermine IC) was 1.1 ± 0.3 µM. Besides, the Emax at NMDA receptor [3] (read-out: % Sti) worked out at 0%.

Values taken from patent US6511963B1 (priority 1992, dated 2003).
